# Assay results published in US20140023611A1 (priority 2010, published 2014).
# Columns and labels:
# rat NaP2b (SLC34A2) [1] = target: T1, rat NaP2b (SLC34A2) (Rattus norvegicus, UniProt Q9JJ09); assay: Inhibition of NaP2b-mediated Pi (33P) uptake in transfected HEK293 cells, rat NaP2b; format: cell-based; details: 33P Pi uptake, 0.1 mM phosphate, value given as pIC50 range
# T1 construct: host or cells: HEK293
# T1 sequence (Q9JJ09 1-695): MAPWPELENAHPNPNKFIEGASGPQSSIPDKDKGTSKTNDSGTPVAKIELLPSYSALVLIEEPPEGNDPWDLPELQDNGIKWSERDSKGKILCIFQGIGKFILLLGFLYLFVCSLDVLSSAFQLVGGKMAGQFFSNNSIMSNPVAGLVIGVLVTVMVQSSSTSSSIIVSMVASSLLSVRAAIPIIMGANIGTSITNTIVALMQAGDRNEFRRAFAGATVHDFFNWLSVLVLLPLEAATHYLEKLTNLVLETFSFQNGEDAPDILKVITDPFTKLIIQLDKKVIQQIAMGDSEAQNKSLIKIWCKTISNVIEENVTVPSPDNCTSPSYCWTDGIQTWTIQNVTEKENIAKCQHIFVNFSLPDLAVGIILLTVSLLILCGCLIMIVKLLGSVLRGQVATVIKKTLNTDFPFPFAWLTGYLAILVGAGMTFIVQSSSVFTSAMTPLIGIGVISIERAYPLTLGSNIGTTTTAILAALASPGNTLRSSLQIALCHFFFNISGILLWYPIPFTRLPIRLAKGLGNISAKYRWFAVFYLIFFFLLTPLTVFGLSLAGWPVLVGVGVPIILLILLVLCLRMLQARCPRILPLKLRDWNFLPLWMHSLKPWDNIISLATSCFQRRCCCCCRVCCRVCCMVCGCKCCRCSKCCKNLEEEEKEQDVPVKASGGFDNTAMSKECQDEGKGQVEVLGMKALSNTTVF
# Method in brief: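 The cells transiently expressed NaP2b after Lipofectamine transfection. Each compound was run in duplicate over twelve concentrations, 0.1 nM–30 uM.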
# [2] = tested on: Uptake of Phosphorus from the Intestine; assay: In vivo bolus phosphorus challenge; design: species or system rat; details: Sprague-Dawley rats on low-phosphorus diet; oral Drug Dose 30, 15 min before phosphate bolus; serum 30 min post bolus
# Method: By pretreating animals with a low phosphorus diet followed by the subsequent dosing of a phosphorus bolus, serum phosphorus levels were monitored after 30 minutes as a surrogate for intestinal phosphorus absorption. […] The in vivo bolus phosphorus challenge model used here mimics this model in rats.
# Male, 7-week-old Sprague-Dawley rats (Charles-River laboratories international, Hollister, Calif.) were allowed to acclimatize for a minimum of 3 days before switching to a synthetic low-phosphorus diet (TD.85010, Harlan Teklad, Madison, Wis.) which contains 0.1% phosphorus and 0.6% calcium. At day 5, testing compounds or vehicle alone (as indicated) were orally administered at the indicated dose in a volume of 5 ml/kg, followed by a bolus gavage of monobasic sodium phosphate (1 mmol in 1 ml) 15 min after compound dosing. Serum was collected via retroorbital bleeding 30 min post phosphate bolus and phosphate levels were determined utilizing an ACE ALERA blood chemistry analyzer (Alfa Wassermann Diagnostic Technologies, West Caldwell, N.J.).
# The extent of inhibition by test compounds on the elevation of serum phosphate levels in response to the bolus of phosphorus is shown in Table 12 (data are expressed as % Inhibition, with 6-10 animals per data point). The differences between groups were evaluated by one-way analysis of variance with Dunnett's post hoc tests.
# [3] = Determination of compound Cmax and AUC after oral gavage (plasma LC-MS/MS); format: in vivo, Sprague-Dawley rats; details: Sprague-Dawley, rat, plasma, po, Structure (II) examples, Table 6, actual oral dose 7.6-11 mg/kg
# Method in brief: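 Plasma exposure measured by LC-MS/MS after acetonitrile precipitation with internal standard, quantified against a standard curve made in plasma. Compound given orally by gavage to Sprague-Dawley rats at nominal 2.5 or 10 mg/kg, with K2EDTA plasma sampled at 0.5, 1, 2 and 4 h.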
# rat NaP2b (SLC34A2) [4] = target: T1, rat NaP2b (SLC34A2); assay: NaP2b-mediated Pi transport (33P uptake) in transfected HEK293 cells, rat NaP2b; format: cell-based; details: HEK293, 0.1 mM phosphate
# Method in brief: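 HEK293 cells transiently transfected with NaP2b cDNA, endogenous PiT transport suppressed; ^33P-phosphate uptake measured in sodium vs choline buffer (100 uM KH2PO4, pH 7.4) for 3–30 min at room temperature. Twelve concentrations, 0.1 nM–30 uM, in duplicate; uptake by scintillation counting, pIC50 calculated.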
# human NaP2b (SLC34A2) = target: T2, human NaP2b (SLC34A2) (Homo sapiens, UniProt O95436); assay: NaP2b-mediated Pi transport (33P uptake) in transfected HEK293 cells, human NaP2b; format: cell-based; details: Structure (II) examples, Table 2; HEK293, 0.1 mM phosphate; read-out: pIC50 range for human Nap2b (converted)
# T2 construct: host or cells: HEK293
# T2 sequence (O95436 1-690): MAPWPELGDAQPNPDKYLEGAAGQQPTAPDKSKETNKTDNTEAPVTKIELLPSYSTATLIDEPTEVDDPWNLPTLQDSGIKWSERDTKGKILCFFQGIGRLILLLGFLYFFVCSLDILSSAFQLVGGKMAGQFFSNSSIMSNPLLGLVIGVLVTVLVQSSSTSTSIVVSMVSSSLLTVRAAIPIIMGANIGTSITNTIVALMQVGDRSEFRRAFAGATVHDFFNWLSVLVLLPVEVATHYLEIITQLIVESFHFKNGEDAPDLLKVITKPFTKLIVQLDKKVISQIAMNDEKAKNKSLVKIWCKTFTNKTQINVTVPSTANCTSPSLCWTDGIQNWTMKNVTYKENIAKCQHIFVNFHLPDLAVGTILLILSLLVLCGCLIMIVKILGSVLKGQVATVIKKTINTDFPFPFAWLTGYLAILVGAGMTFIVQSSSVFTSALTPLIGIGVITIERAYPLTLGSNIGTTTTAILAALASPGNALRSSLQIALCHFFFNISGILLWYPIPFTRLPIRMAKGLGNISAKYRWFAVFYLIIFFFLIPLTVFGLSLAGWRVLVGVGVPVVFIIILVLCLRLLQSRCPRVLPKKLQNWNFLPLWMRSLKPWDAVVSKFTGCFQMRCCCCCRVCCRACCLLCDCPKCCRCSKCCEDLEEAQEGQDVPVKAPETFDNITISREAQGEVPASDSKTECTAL
# Method: HEK293 cells were obtained from the American Type Culture collection and propagated per their instructions. Expression clones for rat and human NaP2b (SLC34A2) were obtained from Open Biosystems (Catalog numbers MRN1768-9510282, and MHS1010-99823026, respectively). The sequence of the human protein was mutated to insert a threonine after residue 37, and to introduce a N39D mutation.
# The rate of phosphate (Pi) uptake into HEK293 cells was measured using a modification of the method described by Mohrmann et al. (Mohrmann, I., Mohrmann, M., Biber, J., and Murer, H. (1986) Am. J. Phys. 250(3 Pt 1):G323-30.) Transfected HEK293 cells were treated with a pharmacological agent to minimize endogenous PiT-mediated phosphate transport activity, such that the only remaining sodium-dependent phosphate transport activity is that which was bestowed by introduction of the NaP2b genes.
# Cells were seeded into 96-well plates at 25,000 cells/well and cultured overnight. […]
# After incubation for 3-30 minutes at room temperature, assay mixtures were removed, and the cells were washed twice with ice cold stop solution (137 mM sodium chloride, 14 mM Tris, pH 7.4). Cells were lysed by addition of 20 μL 0.1% Tween 80 followed by 100 μL scintillation fluid, and counted using a TopCount (Perkin Elmer).
# pIC50 (the negative log of the IC50) values of the test compounds were calculated using GraphPad Prism.
# NaPi2b [5] = assay: Competition with phosphate: Pi uptake assay repeated at 2.1 vs 0.1 mM phosphate; format: cell-based; details: potency at 2.1 vs 0.1 mM phosphate
# Source text: For example, a phosphate uptake assay can be performed and the IC50 values for a compound at different phosphate concentrations can be determined (e.g., “Enzyme kinetics”, I. Segel, 1975, John-Wiley & Sons, p. 123). IC50 values for non-competitive inhibitors will remain the same or similar with respect to the phosphate concentration, whereas IC50 values for competitive inhibitors will increase (i.e lose potency) as phosphate concentration increases.
# (§1) To ascertain if an inhibitor was competitive for binding with phosphate, the procedure was repeated, but raising the concentration of the substrate in the assay mixture from 0.1 to 2.1 mM phosphate.
# NaPi2b [6] = target: T3, NaPi2b (Rattus norvegicus, UniProt Q9JJ09); assay: Competition with phosphate: Pi transport assay repeated at 2.1 vs 0.1 mM phosphate; format: cell-based; details: potency at 2.1 vs 0.1 mM phosphate
# T3 construct: host or cells: HEK293
# T3 sequence (Q9JJ09 1-695): T1 sequence (Q9JJ09 1-695)
# Method: as §1
# [7] = Structure (II) examples, Table 2
# [8] = Structure (III) examples, Table 2
# [9] = Structure (IV) examples, Table 1
smiles,measurement,setting,value
"O=C(NCCN1CCOCC1)c1cccc(C(=O)Nc2ccc(N3CCCCC3)cc2-c2cc(C(=O)NCc3cccc(C(F)(F)F)c3)ccn2)c1 [Example 4.4, N1-(2-Morpholinoethyl)-N3-(4-(piperidin-1-yl)-2-(4-((3-(trifluoromethyl)benzyl)carbamoyl)pyridin-2-yl)phenyl)isophthalamide]",IC50,rat NaP2b (SLC34A2) [1],10 to 31.6 µM
same,% Inhibition of Serum P elevation,[2],40-50%
O=C(O)CCOCCOCCOCCNC(=O)c1cccc(C(=O)Nc2ccc(Cl)cc2C(=O)Nc2ccn(-c3cccc(C(F)(F)F)c3)n2)c1 [Example 25],Cmax,[3],3 ng/mL
same,IC50,"rat NaP2b (SLC34A2) [4]; Structure (II) examples, Table 2, read-out: pIC50 range for rat Nap2b (converted)",< 1 µM
same,IC50,human NaP2b (SLC34A2),< 1 µM
O=C(O)P(=O)(O)O [PFA],pIC50 range for rat Nap2b,rat NaP2b (SLC34A2) [1],2-3
same,Competitive with respect to Pi?,NaPi2b [5],Yes
same,pIC50 range for rat Nap2b,rat NaP2b (SLC34A2) [4]; [7],2-3
same,pIC50 range for rat Nap2b,rat NaP2b (SLC34A2) [4]; [8],2-3
same,pIC50 range for rat Nap2b,rat NaP2b (SLC34A2) [4]; [9],2-3
same,Competitive with respect to Pi?,NaPi2b [6]; [7],Yes
same,Competitive with respect to Pi?,NaPi2b [6]; [8],Yes
same,Competitive with respect to Pi?,NaPi2b [6]; [9],Yes
